The values that follow come from paper PMC9536293, “Targeting extracellular matrix remodeling sensitizes glioblastoma to ionizing radiation” (Neuro-Oncology Advances, 2022).

One experiment concerns Glioblastoma (GBM). Details: method as in PMID 32478924. The settings on record: added to radiotherapy; GBM patients; on average; cited from earlier work.
A further experiment concerns 913-GSCs. Nature of the experiment: Invasion through a Matrigel/HA matrix (XCELLigence). Particulars: shMT1-MMP 913-GSCs; 10 ng/ml. It is filed as cell-based, human. The procedure: XCELLigence.—Invasion was performed as per the manufacturer’s instructions. Briefly, 10^4 913-GSCs and GBM1 cells were plated on top of uncoated or 0.4% Growth Factor Reduced Matrigel/10 µg/ml hyaluronic acid (HA) coated wells (CIM plate 16). HA was used as it is a major component of brain ECM. Cells were left at room temperature for 30 min to settle and then the plates were placed into an xCELLigence RTCA DP instrument (ACEA Bioscience). Measurements were taken every 15 min for 48 h or up to 6 days. Cell Index (CI) curves normalized to initial seeding were recorded. 3D Decellularized Brain matrix: 10^4 913-GSC cells were embedded in a 3D decellularized mouse brain matrix, derived as in,[16],[17] which retains the architecture and major components of brain ECM. Briefly, Nu/nu mouse brains were cut into small pieces and submerged in decellularizing solution [0.1% (v/v) ammonium hydroxide (Sigma) and 1% (v/v) Triton X-100 (Sigma) in distilled water] for 2 days. After washing in distilled water, the derived ECM was digested with pepsin (1 mg/ml; Sigma) in HCl (0.01 N) for 2 days at room temperature until visible ECM particle disappeared. To make hydrogels, the ECM solution was mixed with 10 × PBS, dilute to the desired final concentration (20 mg/ml) with ice-cold distilled water and adjust to pH7 by NaOH (1 M). […] Invadopodia length was measured and quantified with ImageJ.

In the case of `Cn1nnc2c(C(N)=O)ncn2c1=O` [TMZ, temozolomide], the “increase in survival compared to radiotherapy alone” value with Glioblastoma (GBM) was 2.5 months.

B1: recombinant MMP2: Recombinant MMP2 purchased from R&D Systems, used at 10 ng/ml (protein, UniProt P08253 110-660, looked up)
72 kDa type IV collagenase: YNFFPRKPKWDKNQITYRIIGYTPDLDPETVDDAFARAFQVWSDVTPLRFSRIHDGEADIMINFGRWEHGDGYPFDGKDGLLAHAFAPGTGVGGDSHFDDDELWTLGEGQVVRVKYGNADGEYCKFPFLFNGKEYNSCTDTGRSDGFLWCSTTYNFEKDGKYGFCPHEALFTMGGNAEGQPCKFPFRFQGTSYDSCTTEGRTDGYRWCGTTEDYDRDKKYGFCPETAMSTVGGNSEGAPCVFPFTFLGNKYESCTSAGRSDGKMWCATTANYDDDRKWGFCPDQGYSLFLVAAHEFGHAMGLEHSQDPGALMAPIYTYTKNFRLSQDDIKGIQELYGASPDIDLGTGPTPTLGPVTPEICKQDIVFDGIAQIRGEIFFFKDRFIWRTVTPRDKPMGPLLVATFWPELPEKIDAVYEAPQEEKAVFFAGNEYWIYSASTLERGYPKPLTSLGLPPDVQRVDAAFNWSKNKKTYIFAGDKFWRYNEVKKKMDPGFPKLIADAWNAIPDNLDAVVDLQGGGHSYFFKGAYYLKLENQSLKSVKFGSIKSDWLGC
For the molecule B1, in the experiment on 913-GSCs, the “invasion of MT1-MMP depleted cells through Matrigel/HA matrix” value is given as “restored the cells invasive capacity to the levels of controls”.
